Measured values published in publication PMC3060404 (Chembiochem : a European journal of chemical biology, 2010).

Assays:
Assay type in all cases: biochemical
[1] = target: PRMT1 (Homo sapiens, UniProt Q99873); assay: PRMT1 IC50 assay; conditions: read-out: IC50 for PRMT1; 200 nM PRMT1, 15 µM 14C-methyl-SAM, 25 µM AcH4-21, 37 °C
[2] = tested on: PRMT3; assay: PRMT3 IC50 assay; conditions: read-out: IC50 for PRMT3; 500 nM PRMT3, 15 µM 14C-methyl-SAM, 250 µM RGG, 37 °C
[3] = tested on: CARM1/PRMT4; assay: CARM1/PRMT4 IC50 assay; conditions: read-out: IC50 for PRMT4; 150 nM CARM1/PRMT4, 15 µM 14C-methyl-SAM, 10 µM histone H3, 30 °C
[4] = target: PRMT6 (Homo sapiens, UniProt Q96LA8); assay: PRMT6 IC50 assay; conditions: read-out: IC50 for PRMT6; 500 nM PRMT6, 15 µM 14C-methyl-SAM, 30 µM histone H3, 37 °C
Sequence of PRMT6 (Q96LA8 whole entry, species assumed): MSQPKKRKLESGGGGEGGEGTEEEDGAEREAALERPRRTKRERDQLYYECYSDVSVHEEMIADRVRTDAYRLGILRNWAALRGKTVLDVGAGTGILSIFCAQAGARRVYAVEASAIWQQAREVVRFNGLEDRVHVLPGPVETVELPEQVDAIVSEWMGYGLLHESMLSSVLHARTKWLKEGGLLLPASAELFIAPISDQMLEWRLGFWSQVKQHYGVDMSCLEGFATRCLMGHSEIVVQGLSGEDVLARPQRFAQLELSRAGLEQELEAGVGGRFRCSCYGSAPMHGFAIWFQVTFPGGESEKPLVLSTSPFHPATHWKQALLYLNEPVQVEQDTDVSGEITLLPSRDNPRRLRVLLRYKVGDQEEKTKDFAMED

Sequence of PRMT1 (Q99873 1-353 isoform Q99873-3): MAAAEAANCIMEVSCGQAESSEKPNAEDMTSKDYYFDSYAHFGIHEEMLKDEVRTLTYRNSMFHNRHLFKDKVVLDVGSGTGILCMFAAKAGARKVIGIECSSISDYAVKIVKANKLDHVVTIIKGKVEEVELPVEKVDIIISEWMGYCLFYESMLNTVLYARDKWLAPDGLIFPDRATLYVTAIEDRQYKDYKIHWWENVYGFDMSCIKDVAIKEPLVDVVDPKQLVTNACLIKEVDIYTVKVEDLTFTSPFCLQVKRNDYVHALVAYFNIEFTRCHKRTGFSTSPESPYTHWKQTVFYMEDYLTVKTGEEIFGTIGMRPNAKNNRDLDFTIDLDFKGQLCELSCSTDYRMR

| IC50 [1] [µM] | IC50 [2] [µM] | IC50 [3] [µM] | IC50 [4] [µM] | Structure (SMILES) |
| --- | --- | --- | --- | --- |
| 225 ± 10 | > 500 | > 500 | > 500 | NC(=O)[C@H](CCCN=C(N)CCl)NC(=O)c1ccccc1 [Cl-amidine] |
| > 500 | > 500 | > 500 | > 500 | NC(=O)[C@H](CCCN=C(N)CF)NC(=O)c1ccccc1 [F-amidine] |
